This passage reports Activity results from ChEMBL document CHEMBL1146305, “Synthesis of pyochelin-norfloxacin conjugates” (Bioorg Med Chem Lett, 2007).

The structures appear in SMILES notation. Active and inactive are the calls of the source. The rule behind the calls is not given here.

For the test, the system named is Pseudomonas aeruginosa. Description: Antibacterial activity against Pseudomonas aeruginosa PAO1. In kind it is functional, organism-based.

Consider `CCn1cc(C(=O)O)c(=O)c2cc(F)c(N3CCN(C(=O)OCOC(=O)CCC(=O)NCC#Cc4ccc(O)c(C5=NC(C6SCC(C(=O)O)N6C)CS5)c4)CC3)cc21` (configuration not stated), for which the result was Active.

In the case of `CCn1cc(C(=O)O)c(=O)c2cc(F)c(N3CCN(C(=O)OCOC(=O)CCC(=O)NCCCc4ccc(O)c(C5=NC(C6SCC(C(=O)O)N6C)CS5)c4)CC3)cc21` (configuration not stated), the outcome was Active.
